Test results reported in the supplement of paper PMC10307832.

Columns and labels:
Test in all cases: relative viability (nuclei count vs DMSO), 5 days (fraction); higher = more cells survive
Tanzisertib + Luminespib = compound: O[C@H]1CC[C@H](Nc2ncc3nc(Nc4c(F)cc(F)cc4F)n([C@H]4CCOC4)c3n2)CC1 [Tanzisertib] + CCNC(=O)c1noc(-c2cc(C(C)C)c(O)cc2O)c1-c1ccc(CN2CCOCC2)cc1 [Luminespib] (partner 0.01 µM)
In short: (§1)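 Five library-drug doses in √10 steps were combined with a fixed anchor-drug dose, or a single drug was given alone, by pin tool to lung cancer cell lines in 1536-well plates the day after seeding. Nuclei were stained and counted after 5 days. Relative viability is the nuclei count in treated wells over that in vehicle wells, taken as the median of duplicate plates.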

Tanzisertib + Phenformin = compound: O[C@H]1CC[C@H](Nc2ncc3nc(Nc4c(F)cc(F)cc4F)n([C@H]4CCOC4)c3n2)CC1 [Tanzisertib] + N=C(N)NC(=N)NCCc1ccccc1 [Phenformin] (partner 250 µM)
In short: as §1

Tanzisertib + Crizotinib = compound: O[C@H]1CC[C@H](Nc2ncc3nc(Nc4c(F)cc(F)cc4F)n([C@H]4CCOC4)c3n2)CC1 [Tanzisertib] + C[C@@H](Oc1cc(-c2cnn(C3CCNCC3)c2)cnc1N)c1c(Cl)ccc(F)c1Cl [Crizotinib] (partner 1 µM)
In short: as §1

[1] = compound: C[C@@H](N)c1ccc(C(=O)Nc2ccnc3[nH]ccc23)cc1 + CCNC(=O)c1noc(-c2cc(C(C)C)c(O)cc2O)c1-c1ccc(CN2CCOCC2)cc1 [Luminespib] (partner 0.01 µM)
In short: as §1

Cell Line	relative viability (Tanzisertib + Luminespib; first compound 0.08 µM)	relative viability (Tanzisertib + Luminespib; first compound 0.253 µM)	relative viability (Tanzisertib + Luminespib; first compound 0.8 µM)	relative viability (Tanzisertib + Luminespib; first compound 2.53 µM)	relative viability (Tanzisertib + Luminespib; first compound 8 µM)	relative viability (Tanzisertib + Phenformin; first compound 0.08 µM)	relative viability (Tanzisertib + Phenformin; first compound 0.253 µM)	relative viability (Tanzisertib + Phenformin; first compound 0.8 µM)	relative viability (Tanzisertib + Phenformin; first compound 2.53 µM)	relative viability (Tanzisertib + Phenformin; first compound 8 µM)	relative viability (Tanzisertib + Crizotinib; first compound 0.08 µM)	relative viability (Tanzisertib + Crizotinib; first compound 0.253 µM)	relative viability (Tanzisertib + Crizotinib; first compound 0.8 µM)	relative viability (Tanzisertib + Crizotinib; first compound 2.53 µM)	relative viability (Tanzisertib + Crizotinib; first compound 8 µM)	relative viability ([1]; first compound 0.04 µM)	relative viability ([1]; first compound 0.4 µM)	relative viability ([1]; first compound 4 µM)	relative viability ([1]; first compound 0.1265 µM)	relative viability ([1]; first compound 1.265 µM)
LK-2	0.224	0.187	0.191	0.192	0.181	0.77	0.517	0.559	0.548	0.228	0.233	0.271	0.232	0.244	0.235	0.202	0.218	0.238	–	–
SW 1573	0.294	0.24	0.18	0.187	0.339	0.457	0.305	0.347	0.417	0.356	0.769	0.798	0.769	0.872	0.611	0.311	0.212	0.249	0.37	0.304
NCI-H2405	0.716	0.713	0.577	0.676	0.609	0.454	0.393	0.426	0.385	0.345	0.935	0.825	0.828	0.916	0.789	0.461	0.577	0.238	0.805	0.279
NCI-H2087	0.182	0.2	0.166	0.21	0.168	0.464	0.502	0.463	0.447	0.322	0.717	0.918	0.889	0.899	1.06	0.152	0.126	0.174	0.153	–
NCI-H460	0.0366	0.0372	0.0359	0.0394	0.0394	0.572	0.522	0.489	0.54	0.523	1.06	0.897	0.978	0.923	0.791	0.04	0.0267	0.0227	0.0445	0.0276
LOU-NH91	0.431	0.345	0.371	0.33	0.349	0.731	0.763	0.746	0.73	0.439	0.716	0.734	0.723	0.464	0.593	0.283	0.381	0.316	0.334	0.33
NCI-H1651	0.989	0.802	0.746	0.921	0.729	0.327	0.371	0.305	0.322	0.332	0.851	0.817	0.882	0.833	0.921	0.806	1.1	0.826	0.734	1.02
NCI-H441	0.312	0.338	0.29	0.279	0.314	1.12	0.723	0.725	0.853	0.817	0.94	0.811	0.505	0.647	0.78	0.451	0.326	0.403	0.342	–
